Measurements reported in patent US8124778B2, “Tricyclic inhibitors of fatty acid amide hydrolase” (The Scripps Research Institute, priority 2007, dated 2012).

Biological target: T1, purified recombinant rat FAAH (Rattus norvegicus, UniProt P97612)
T1 construct: The truncated rat FAAH (rFAAH) was expressed in E. coli and purified as described; made in house; host or cells: E. coli
T1 sequence (P97612 30-579 limits assumed): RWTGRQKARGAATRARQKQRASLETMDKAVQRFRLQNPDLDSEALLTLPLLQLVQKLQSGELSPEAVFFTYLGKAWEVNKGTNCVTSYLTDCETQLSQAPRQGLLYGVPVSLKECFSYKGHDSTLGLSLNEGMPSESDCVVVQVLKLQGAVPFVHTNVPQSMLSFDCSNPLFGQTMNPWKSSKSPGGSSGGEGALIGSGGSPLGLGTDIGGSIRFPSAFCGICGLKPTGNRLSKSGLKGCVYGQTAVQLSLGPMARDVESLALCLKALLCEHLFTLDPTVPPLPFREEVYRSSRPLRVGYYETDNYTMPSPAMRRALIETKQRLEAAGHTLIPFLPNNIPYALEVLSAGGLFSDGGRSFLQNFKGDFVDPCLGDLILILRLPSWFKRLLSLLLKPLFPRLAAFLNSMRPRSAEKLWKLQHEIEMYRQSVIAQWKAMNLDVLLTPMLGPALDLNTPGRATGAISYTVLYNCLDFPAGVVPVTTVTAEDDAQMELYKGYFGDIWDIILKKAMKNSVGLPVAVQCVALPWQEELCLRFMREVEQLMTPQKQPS
Assay: FAAH inhibition enzyme assay (14C-oleamide hydrolysis, Dixon plot)
Format: biochemical
Details: rat FAAH
Method: Enzyme assays were performed at 20-23° C. with purified recombinant rat FAAH expressed in E. coli (Patricelli, M. P.; Lashuel, H. A.; et al. Biochemistry 1998, 37, 15177-15187) (unless indicated otherwise) or with solubilized COS-7 membrane extracts from cells transiently transfected with human FAAH cDNA (Giang, D. K.; Cravatt, B. F. Proc. Natl. Acad. Sci. U.S.A. 1997, 94, 2238-2242) (where specifically indicated) in a buffer of 125 mM Tris/1 mM EDTA/0.2% glycerol/0.02% Triton X-100/0.4 mM Hepes, pH 9.0 buffer (Patricelli, M. P.; Patterson, J. P.; et al. Bioorg. Med. Chem. Lett. 1998, 8, 613-618). The initial rates of hydrolysis (≦10-20% reaction) were monitored using enzyme concentrations at least three times below the measured Ki by following the breakdown of ^14C-oleamide and Ki's (standard deviations are provided in Supporting Information tables) were established as described (Dixon plot) (Boger, D. L.; Sato, H.; et al. Proc. Natl. Acad. Sci. U.S.A. 2000, 97, 5044-5049). Lineweaver-Burk analysis previously established reversible, competitive inhibition (Boger, D. L.; Miyauchi, H.; et al. J. Med. Chem. 2005, 48, 1849-1856).
FAAH Inhibition. ^14C-labeled oleamide was prepared from ^14C-labeled oleic acid as described (Cravatt, B. F.; et al. Science 1995, 268, 1506-1509). The truncated rat FAAH (rFAAH) was expressed in E. coli and purified as described (Patricelli, M. P.; Lashuel, H. A.; et al. Biochemistry 1998, 37, 15177-15187). The purified recombinant rFAAH was used in the inhibition assays unless otherwise indicated. The full-length human FAAH (hFAAH) was expressed in COS-7 cells as described (Giang, D. K.; Cravatt, B. F. Proc. Natl. Acad. Sci. U.S.A. 1997, 94, 2238-2242), and the lysate of hFAAH-transfected COS-7 cells was used in the inhibition assays where explicitly indicated.
The inhibition assays were performed as described (Cravatt, B. F.; et al. Science 1995, 268, 1506-1509). In brief, the enzyme reaction was initiated by mixing 1 nM of rFAAH (800, 500, or 200 pM rFAAH for inhibitors with Ki≦1-2 nM) with 10 μM of ^14C-labeled oleamide in 500 μL of reaction buffer (125 mM TrisCl, 1 mM EDTA, 0.2% glycerol, 0.02% Triton X-100, 0.4 mM Hepes, pH 9.0) at room temperature in the presence of three different concentrations of inhibitor. The enzyme reaction was terminated by transferring 20 μL of the reaction mixture to 500 μL of 0.1 N HCl at three different time points. The ^14C-labeled oleamide (substrate) and oleic acid (product) were extracted with EtOAc and analyzed by TLC as detailed (Cravatt, B. F.; et al. Science 1995, 268, 1506-1509). The Ki of the inhibitor was calculated using a Dixon plot as described (standard deviations are provided in the Supporting Information tables) (Boger, D. L.; Sato, H.; et al. Proc. Natl. Acad. Sci. U.S.A. 2000, 97, 5044-5049). Lineweaver-Burk analysis was performed as described confirming competitive, reversible inhibition (Boger, D. L.; Miyauchi, H.; et al. J. Med. Chem. 2005, 48, 1849-1856).

| Compound | FAAH inhibitory potency (in words) |
| --- | --- |
| O=C(CCCCCCc1ccccn1)c1ncc(-c2ccccn2)o1 [5e, 1-Oxo-1-[5-(2-pyridyl)oxazol-2-yl]-7-(2-pyridyl)heptane] | reductions in the Ki |
| O=C(CCCCCCc1cccnc1)c1ncc(-c2ccccn2)o1 [5f, 1-Oxo-1-[5-(2-pyridyl)oxazol-2-yl]-7-(3-pyridyl)heptane] | reductions in the Ki |
